Experimental data taken from patent US20260098017A1, “NOVEL AROMATIC RING DERIVATIVE CONTAINING AMIDE SUBSTITUTION AND USE THEREOF” (TIANJIN PHARMACEUTICAL BIOTECHNOLOGY CO., LTD., priority 2022, published 2026).

Target: Ba/F3 cell line expressing TYK2 (Homo sapiens, UniProt P29597, cells depend on it, form not given)
Assay: In vitro cellular inhibition assay (Ba/F3 cell proliferation, CellTiter-Glo)
Type: cell-based
Settings: read-out: IC50 (the source's name)
Procedure: The inhibitory effect of the compounds of formula (I) according to the present invention on the TYK2 signaling pathway in cells was assessed using the following method:
Instrumentation: SpectraMax Paradigm reader.
Method: in this experiment, a Ba/F3 cell line expressing TYK2 was employed to assess the effect of the compounds on cell proliferation inhibition by measuring their effects on cell activity in vitro.
Procedure: a CellTiter-Glo buffer was thawed and placed aside till room temperature. A CellTiter-Glo substrate was placed aside till room temperature and dissolved with the buffer to prepare a CellTiter-Glo working solution. To a 96-well flat bottom transparent drug plate, 98 μL of cell culture medium and 2 μL of gradient diluted compound solution were added. The drug plate was placed aside for 10 min, and then 50 μL of the CellTiter-Glo working solution was added. The drug plate was subsequently shaken on an orbital shaker for 2 min and placed aside at room temperature for an additional 10 min. Finally, the luminescence signal was measured on the SpectraMax Paradigm reader.
Data Analysis: the cell proliferation inhibition rate data were processed using the following formula:
Inhibition Rate (Inh %)=100−(RLUDrug−RLUMin)/(RLUMax−RLUMin)×100%.
The inhibition rates of compounds with different concentrations were calculated in EXCEL, and then GraphPad Prism software was employed to plot inhibition rate curve and calculate relevant parameters, including maximum and minimum cell inhibition rates, IC50 values.

Row | SMILES | GI50 [nM]
1 | [2H]C([2H])([2H])NC(=O)c1cnc(NC(=O)C2CC2)cc1Nc1cccc(C(=O)Nc2ccc(C3CC3)cc2)c1OC [Example 71] | 5 to 10
2 | [2H]C([2H])([2H])NC(=O)c1cnc(NC(=O)C2CC2)cc1Nc1cccc(C(=O)Nc2ccc(C(C)C)cc2)c1OC [Example 72] | 5 to 10
3 | [2H]C([2H])([2H])NC(=O)c1cnc(NC(=O)C2CC2)cc1Nc1cccc(C(=O)Nc2ccc(C(C)(C)C)cc2)c1OC [Example 73] | 5 to 10
4 | [2H]C([2H])([2H])NC(=O)c1cnc(NC(=O)C2CC2)cc1Nc1cccc(C(=O)Nc2ccc(C(F)(F)F)cc2)c1OC [Example 74] | 5 to 10
5 | [2H]C([2H])([2H])NC(=O)c1cnc(NC(=O)C2CC2)cc1Nc1cccc(C(=O)Nc2ccc(C#N)cc2)c1OC [Example 75] | 5 to 10
6 | [2H]C([2H])([2H])NC(=O)c1cnc(NC(=O)C2CC2)cc1Nc1cccc(C(=O)Nc2ccc(OC)cc2)c1OC [Example 76] | 5 to 10
7 | [2H]C([2H])([2H])NC(=O)c1cnc(NC(=O)C2CC2)cc1Nc1cccc(C(=O)Nc2ccc(CC)c(C)c2)c1OC [Example 77] | 5 to 10
8 | [2H]C([2H])([2H])NC(=O)c1cnc(NC(=O)C2CC2)cc1Nc1cccc(C(=O)Nc2ccc(C3CC3)c(C)c2)c1OC [Example 78] | 5 to 10
9 | [2H]C([2H])([2H])NC(=O)c1cnc(NC(=O)C2CC2)cc1Nc1cccc(C(=O)Nc2ccc(C(C)C)c(C)c2)c1OC [Example 79] | 5 to 10
10 | [2H]C([2H])([2H])NC(=O)c1cnc(NC(=O)C2CC2)cc1Nc1cccc(C(=O)Nc2ccc(C(C)(C)C)c(C)c2)c1OC [Example 80] | 5 to 10
11 | [2H]C([2H])([2H])NC(=O)c1cnc(NC(=O)C2CC2)cc1Nc1cccc(C(=O)Nc2ccc(C(F)(F)F)c(C)c2)c1OC [Example 81] | 5 to 10
12 | [2H]C([2H])([2H])NC(=O)c1cnc(NC(=O)C2CC2)cc1Nc1cccc(C(=O)Nc2ccc(C#N)c(C)c2)c1OC [Example 82] | 5 to 10
13 | [2H]C([2H])([2H])NC(=O)c1cnc(NC(=O)C2CC2)cc1Nc1cccc(C(=O)Nc2ccc(OC)c(C)c2)c1OC [Example 83] | 5 to 10
14 | [2H]C([2H])([2H])NC(=O)c1cnc(NC(=O)C2CC2)cc1Nc1cccc(C(=O)Nc2ccc(F)c(C)c2)c1OC [Example 84] | 5 to 10
15 | [2H]C([2H])([2H])NC(=O)c1cnc(NC(=O)C2CC2)cc1Nc1cccc(C(=O)Nc2ccn(C)n2)c1OC [Example 85] | 5 to 10
16 | [2H]C([2H])([2H])NC(=O)c1cnc(NC(=O)C2CC2)cc1Nc1cccc(C(=O)Nc2cn(C)cn2)c1OC [Example 87] | 5 to 10
17 | [2H]C([2H])([2H])NC(=O)c1cnc(NC(=O)C2CC2)cc1Nc1cccc(C(=O)Nc2ncn(C)n2)c1OC [Example 88] | 5 to 10
18 | [2H]C([2H])([2H])NC(=O)c1cnc(NC(=O)C2CC2)cc1Nc1cccc(C(=O)Nc2cccc(C)n2)c1OC [Example 89] | 5 to 10
19 | [2H]C([2H])([2H])NC(=O)c1cnc(NC(=O)C2CC2)cc1Nc1cccc(C(=O)Nc2ccnc(C)c2)c1OC [Example 90] | 5 to 10
20 | [2H]C([2H])([2H])NC(=O)c1cnc(NC(=O)C2CC2)cc1Nc1cccc(C(=O)Nc2cc(C)ccn2)c1OC [Example 92] | 5 to 10
21 | [2H]C([2H])([2H])NC(=O)c1cnc(NC(=O)C2CC2)cc1Nc1cccc(C(=O)Nc2ncc(F)cn2)c1OC [Example 93] | 5 to 10
22 | [2H]C([2H])([2H])NC(=O)c1cnc(NC(=O)C2CC2)cc1Nc1cccc(C(=O)Nc2ccc(F)cn2)c1OC [Example 94] | 5 to 10
23 | [2H]C([2H])([2H])NC(=O)c1cnc(NC(=O)C2CC2)cc1Nc1cccc(C(=O)Nc2ccc(C)cn2)c1OC [Example 95] | 5 to 10
24 | [2H]C([2H])([2H])NC(=O)c1cnc(NC(=O)C2CC2)cc1Nc1cccc(C(=O)Nc2ncc(C)cn2)c1OC [Example 97] | 5 to 10
25 | [2H]C([2H])([2H])NC(=O)c1cnc(NC(=O)C2CC2)cc1Nc1cccc(C(=O)Nc2ccc(F)nc2)c1OC [Example 98] | 5 to 10
